In patent US12139473B2, “Substituted-N-heteroaryl compounds and uses thereof” (Bionomics Limited, priority 2019, dated 2024):

Target: T1, hKv3.1 (Homo sapiens, UniProt P48547)
T1 construct: expressed in transfected cells
T1 sequence (P48547 1-511): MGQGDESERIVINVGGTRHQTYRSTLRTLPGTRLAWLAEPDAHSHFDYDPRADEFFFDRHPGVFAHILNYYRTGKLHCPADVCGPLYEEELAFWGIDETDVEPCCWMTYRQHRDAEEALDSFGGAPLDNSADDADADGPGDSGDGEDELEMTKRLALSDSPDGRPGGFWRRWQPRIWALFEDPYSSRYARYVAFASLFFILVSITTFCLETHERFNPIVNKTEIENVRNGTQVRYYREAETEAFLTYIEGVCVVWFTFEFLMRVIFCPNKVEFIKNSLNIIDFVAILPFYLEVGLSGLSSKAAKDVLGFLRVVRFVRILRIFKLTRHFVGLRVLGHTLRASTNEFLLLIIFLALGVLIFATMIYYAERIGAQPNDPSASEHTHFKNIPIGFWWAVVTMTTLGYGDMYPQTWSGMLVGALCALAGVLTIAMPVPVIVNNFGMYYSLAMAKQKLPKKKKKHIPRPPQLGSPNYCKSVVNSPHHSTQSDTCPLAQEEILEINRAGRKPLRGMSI
Test: Automated patch clamp electrophysiology (Patchliner), CHO/Kv3.1 cells
Format: cell-based
Conditions: 10 μM compound, hKv3.1 in CHO-K1, whole-cell; for Kv3.1 Activity at 10 μM Potentiation (%): peak current at voltage step of −10 mV vs vehicle (0.33% DMSO); for Kv3.1 Activity at 10 μM Voltage Shift (mV): voltage shift of the IV curve at V1/2
Experimental: hKv3.1, hKv3.2, hKv3.3, and hKv3.4 were stably expressed in CHO-K1 (Chinese hamster ovary) cells and kept under constant antibiotic selection. For in vitro assays, cells were maintained in appropriate growth medium at 37° C. and 5% CO2 in a humidified incubator.
hKv3.X expressing cells were plated in T-25 flasks for 3-4 days at 37° C. (no selection antibiotic) prior to use and grown to 80% confluence. Cells were washed twice with PBS (calcium and magnesium free) and detached with a 5-minute treatment at 37° C. with 2-3 mls of Accutase®. Cells were collected, and flask was washed in CHO-SFM II media (Life Technologies Gibco), centrifuged for 2 minutes at ˜110×g and resuspended to obtain a single cell suspension of ˜2-3×10^6 cells/ml.
The intracellular solution contained the following (in mM): KCl 50, NaCl 10, KF 60, EGTA 20, HEPES 10, adjusted to pH 7.2 with KOH and an osmolarity of 285 mOsmol. Seal enhancer was purchased from Nanion (80 mM NaCl, 3 mM KCl, 10 mM MgCl2, 35 mM CaCl2), 10 mM HEPES, pH7.4, 298 mOsmol. The external solution contained (in mM): NaCl 140, KCl 4, CaCl2) 2, MgCl2 1, HEPES 10, Glucose 5, adjusted to pH7.4 and an osmolarity of 298 mOsmol.
All compounds were initially tested at 10 uM at a final DMSO concentration of 0.33%. Compounds were dissolved in dimethylsulfoxide (DMSO) at a stock concentration of 30 mM. The compound was further diluted 1:10 to give a stock concentration of 3 mM in DMSO. The final assay solution was diluted 1:300 in External solution to give a final concentration of 10 uM. For the DMSO Control Buffer 30 uL of DMSO was added to 10 mL buffer.
All electrophysiological recordings were performed at ambient temperature (21-23° C.) using automated patch clamp (Patchliner, Nanion Technologies GmbH) in the whole-cell configuration.
Cell membrane potentials were held at −80 mV, and currents were evoked by voltage steps (1000 ms duration) from −60 to +60 mV in 10 mV increments. This was performed first with vehicle (0.33% DMSO) and then with 10 uM compound, after a 3-minute incubation period. Data was taken from 4 cells per assay.
The recordings were analysed and selected using peak current amplitude (>100 pA at the −10 mV voltage step) in the absence of compound to eliminate unsuitable cells from analysis. Peak current amplitude was measured and recorded for each voltage step and data was normalised to the maximum current at +60 mV. The normalised Kv3.x currents following addition of the compound were then compared with the currents recorded prior to compound addition (vehicle control). Positive modulation was determined as % potentiation at the voltage step of −10 mV=[current (cmpd)/current (veh)]*100−100. % potentiation≥50% was considered acceptable. In addition, voltage shift of the IV curve at V1/2 was measured. V1/2 of ≥−5 mV was also considered acceptable. IV curves were plotted in GraphPad Prism (software version 6.0) and fitted with a Boltzmann equation, where V1/2 is the voltage at half-maximal activation.

Compound | Kv3.1 Activity at 10 μM Potentiation (%) | Kv3.1 Activity at 10 μM Voltage Shift (mV)
COc1cccc(Oc2cc(N3C(=O)NC(C)(C)C3=O)ncn2)c1C(C)C [Example 40, 3-[6-(2-isopropyl-3-methoxy-phenoxy)pyrimidin-4-yl]-5,5-dimethyl-imidazolidine-2,4-dione] | 23 | −2.1 mV
Cc1ccc(Oc2cc(N3C(=O)NC(C)(C)C3=O)ncn2)cc1OCC(C)C [Example 39, 3-[6-(3-isobutoxy-4-methyl-phenoxy)pyrimidin-4-yl]-5,5-dimethyl-imidazolidine-2,4-dione] | 13 | −2.1 mV
COc1cc(Oc2nccc(N3C(=O)NC(C)(C)C3=O)n2)ccc1F [Example 64, 3-[2-(3-methoxy-4-fluoro-phenoxy)pyrimidin-4-yl]-5,5-dimethyl-imidazolidine-2,4-dione] | 34 | −1.8 mV
COc1cc(Oc2ccnc(N3C(=O)NC(C)(C)C3=O)n2)ccc1C [Example 60, 3-[4-(3-methoxy-4-methyl-phenox)pyrimidin-2-yl]-5,5-dimethyl-imidazolidine-2,4-dione] | 22 | −2.0 mV
COc1c(C)cc(Oc2cc(N3C(=O)NC(C)(C)C3=O)ncn2)cc1C [Example 35, 3-[6-(4-methoxy-3,5-dimethyl-phenoxy)pyrimidin-4-yl]-5,5-dimethyl-imidazolidine-2,4-dione] | −10 | −0.4 mV
Cc1cccc(Oc2cc(N3C(=O)NC(C)(C)C3=O)ncn2)c1 [Example 27, 3-[6-(3-methylphenoxy)pyrimidin-4-yl]-5,5-dimethyl-imidazolidine-2,4-dione] | −17 | +2.11 mV
COc1ccc(Oc2cc(N3C(=O)NC(C)(C)C3=O)ncn2)cc1 [Example 11, 3-[6-(4-methoxyphenoxy)pyrimidin-4-yl]-5,5-dimethyl-imidazolidine-2,4-dione] | 8 | −1.3 mV
CC[C@@]1(C)NC(=O)N(c2nccc(Oc3ccc(C)c(OC)c3)n2)C1=O [Example 48, (5R)-5-ethyl-3-[4-(3-methoxy-4-methyl-phenoxy)pyrimidin-2-yl]-5-methyl-imidazolidine-2,4-dione] | 32 | −2.1 mV
Cc1ccccc1Oc1cc(N2C(=O)NC(C)(C)C2=O)ncn1 [Example 26, 3-[6-(2-methylphenoxy)pyrimidin-4-yl]-5,5-dimethyl-imidazolidine-2,4-dione] | 17 | −2.2 mV
Cc1ccc(Oc2cc(N3C(=O)NC(C)(C)C3=O)ncn2)cc1 [Example 28, 3-[6-(4-methylphenoxy)pyrimidin-4-yl]-5,5-dimethyl-imidazolidine-2,4-dione] | 3 | −1.1 mV
CC1(C)NC(=O)N(c2cc(Oc3cccnc3)ncn2)C1=O [Example 23, 5,5-dimethyl-3-[6-(3-pyridyloxy)pyrimidin-4-yl]imidazolidine-2,4-dione] | 28 | −0.9 mV
CC1(C)NC(=O)N(c2cc(Oc3cccc4c3CCC4)ncn2)C1=O [Example 32, 3-(6-indan-4-yloxypyrimidin-4-yl)-5,5-dimethyl-imidazolidine-2,4-dione] | 13 | −1.3 mV

Continued, values first:

Kv3.1 Activity at 10 μM Potentiation (%) | Kv3.1 Activity at 10 μM Voltage Shift (mV) | Compound
48 | −3.1 mV | COc1cc(Oc2cc(N3C(=O)N[C@](C)(C(C)C)C3=O)ncn2)ccc1C [Example 8, (5R)-5-isopropyl-3-[6-(3-methoxy-4-methyl-phenoxy)pyrimidin-4-yl]-5-methyl-imidazolidine-2,4-dione]
35 | −3.2 mV | COc1cc(Oc2cc(N3C(=O)NC4(CCC4)C3=O)ncn2)ccc1C [Example 5, 7-[6-(3-methoxy-4-methyl-phenoxy)pyrimidin-4-yl]-5,7-diazaspiro[3.4]octane-6,8-dione]
16 | −1.9 mV | CC[C@@]1(C)NC(=O)N(c2cc(Oc3ccc(C)c(OC)c3)ncn2)C1=O [Example 2, (5R)-5-ethyl-3-[6-(3-methoxy-4-methyl-phenoxy)pyrimidin-4-yl]-5-methyl-imidazolidine-2,4-dione]
53 | −2.7 mV | COc1ccc(C)c(Oc2cc(N3C(=O)NC(C)(C)C3=O)ncn2)c1 [Example 18, 3-[6-(2-methyl-5-methoxy-phenoxy)pyrimidin-4-yl]-5,5-dimethyl-imidazolidine-2,4-dione]
65 | −3.3 mV | CC1(C)NC(=O)N(c2cc(Oc3ccc4c(c3)CCC4)ncn2)C1=O [Example 31, 3-(6-indan-5-yloxypyrimidin-4-yl)-5,5-dimethyl-imidazolidine-2,4-dione]
25 | −0.9 mV | CCC1(CC)NC(=O)N(c2cc(Oc3ccc(C)c(OC)c3)ncn2)C1=O [Example 4, 3-[6-(3-methoxy-4-methyl-phenoxy)pyrimidin-4-yl]-5,5-diethyl-imidazolidine-2,4-dione]
33 | −1.6 mV | CC1(C)NC(=O)N(c2cc(Oc3ccc4c(c3)OCCC4)ncn2)C1=O [Example 33, 3-(6-chroman-7-yloxypyrimidin-4-yl)-5,5-dimethyl-imidazolidine-2,4-dione]
33 | −2.9 mV | Cc1ccc(Oc2cc(N3C(=O)NC(C)(C)C3=O)ncn2)cc1OC(F)(F)F [Example 44, 3-[6-[4-methyl-3-(trifluoromethoxy)phenoxy]pyrimidin-4-yl]-5,5-dimethyl-imidazolidine-2,4-dione]
11 | +2.0 mV | COc1cc(Oc2cc(N3C(=O)NC(C)(C)C3=O)ncn2)ccc1C(F)(F)F [Example 42, 3-[6-[3-methoxy-4-(trifluoromethyl)phenoxy]pyrimidin-4-yl]-5,5-dimethyl-imidazolidine-2,4-dione]
16 | −3.9 mV | CC[C@H]1NC(=O)N(c2cc(Oc3ccc(C)c(OC)c3)ncn2)C1=O [Example 55, (5R)-5-ethyl-3-[6-(3-methoxy-4-methyl-phenoxy)pyrimidin-4-yl]imidazolidine-2,4-dione]
17 | −3.3 mV | CCOc1cc(Oc2cc(N3C(=O)NC(C)(C)C3=O)ncn2)ccc1C [Example 36, 3-[6-(3-ethoxy-4-methyl-phenoxy)pyrimidin-4-yl]-5,5-dimethyl-imidazolidine-2,4-dione]
